Data as given in US20040259865A1, “Pyrimidone compounds and pharmaceutical compositions containing the same” (priority 2001, published 2004).
Where two headings read alike, the source gives them in different places.

How the values were obtained:
[1] = tested on: guinea pig distal colon longitudinal muscles; conditions: electrical stimulation, cited from earlier work; for pA2 value of the antagonistic action: against relaxing action of NECA
[2] = tested on: guinea pig distal colon longitudinal muscles; conditions: cited from earlier work; for EC50: KCl in the presence of tetrodotoxin, read-out: Relaxing action EC50
[3] = tested on: colon tract; test: Contraction of the colon tract with Carbachol; parameters: species or system rat
Description: (§1) The abdomen of a rat under anesthesia with ether was opened, and from the rectum to the cecum was excised therefrom and soaked in ice-cooled Tyrode solution (containing 136 mM NaCl, 2.7 mM KCl, 0.4 mM NaH2PO4.2H2O, 5.6 mM glucose, 11.9 mM NaHCO3, 1 mM MgCl2.6H2O, 1.8 mM CaCl2). Surrounding connective tissues were removed, and the intestinal tract was cut at positions apart by 1.5 cm from the rectum and by 3 cm from the cecum, to give a colon tract of about 3 cm in full length. Both the terminals of the colon tract were pinched respectively with Serrefines (trade name) to which a string had been connected, and the colon tract with the side of the cecum facing upward was immediately suspended in a Magnus tube filled with Tyrode solution previously warmed at 37° C., and then equilibrated by bubbling with a gas (O2/CO2=95/5). The string connected to the Serrefines (trade name) at the side of the cecum was suspended, and the change in the length of the colon tract was detected with an amplifier for strain pressure (Nihon Kohden Corporation).
Carbachol (Sigma) at each concentration diluted 100-fold was added accumulatively in a volume of 1/100 to the Magnus tube, and the change in the length of the colon tract was measured, and the length thereof in the absence of Carbachol was regarded as 0% contraction, and the length thereof in the presence of 1.44 μM Carbachol was regarded as 100% contraction. In the experiment, 3 samples were used.

[4] = tested on: SD IGS rats; test: Evaluation of defecation-promoting action (Tables 8 and 10); format: in vivo, rat
Description: For example, the defecation-promoting actions of 8-phenyltheophylline (“8-PT” in the table below) and 5-[6-amino-8-(3-fluorophenyl)-9H-9-purinyl]-1-methyl-1,2-di hydro-2-pyridinone (Compound II in the table below) disclosed in Example Number 5 described in WO 2001/2400 were as shown below. 8-PT can be easily produced according to the description of Drug Development Research 47: 45-53 (1999), or is easily available as a commercial product (in this test, it was purchased from Sigma).
That is, SD IGS rats (6- to 7-weeks-old, from Charles River) were placed in cages (3 animals/cage) and preliminarily allowed food and water ad libitum and raised for 1 week. On the day of the experiment, their weight was measured, a water-absorbing sheet was placed below each cage, and the animals were fasted but allowed water ad libitum throughout the experiment. Thee hours after fasting was initiated, the fecal pellets were recovered from each cage and observed for abnormality before the experiment, and then the compound suspended in 0.5% (w/v) methyl cellulose (MC) was orally administered in a dose of 5 ml/kg. On one hand, 0.5% (w/v) MC only was orally given to the control group. After administration of the compound, the rats were returned to the cage provided with a new water-absorbing sheet, and 180 minutes after the administration, the fecal pellets on the water-absorbing sheet were recovered from each cage, and the external appearance was observed, and the number of fecal pellets was counted. The number of fecal pellets is expressed per each cage.

[5] = tested on: SD IGS rats; test: Contribution of A2b inhibition to defecation-promoting action (Test Example 3); format: in vivo, rat; conditions: 180 minutes
Description: (§2) SD IGS rats (6-weeks-old, from Charles River) were placed in cages (3 animals/cage) and preliminarily allowed food and water ad libitum and raised for 1 week. On the day of the experiment, their weight was measured, a water-absorbing sheet was placed below each cage, and the animals were fasted but allowed water ad libitum throughout the experiment. Three hours after fasting was initiated, the fecal pellets were recovered from each cage and observed for abnormality before the experiment, and then the compound suspended or dissolved in 0.5% (W/V) methyl cellulose (MC) was orally administered into each rat in a dose of 5 ml/kg. On one hand, 0.5% (W/V) MC only was orally given to the control group. After administering the compound, the rats were returned to the cage provided with anew water-absorbing sheet of known weight, and 180 minutes after the administration, the fecal pellets on the water-absorbing sheet were recovered from each cage, and the external appearance was observed, and the number of fecal pellets was counted. The number of fecal pellets is expressed per each cage (Table 4). After the fecal pellets were recovered, the water-absorbing sheet was weighed, and the weight determined by subtracting the initial weight of the water-adsorbing sheet from the weight after the experiment was regarded as the volume of urine and expressed as the volume of urine per 100 g of the body weight (Table 4).
After administering the compounds, the rats were returned to the cage under which a new water-absorbing sheet had been installed, and after 180 minutes, the fecal pellets on the water-absorbing sheet were recovered from each cage, and the outward appearance was observed and the number of fecal pellets was counted. The number of fecal pellets is expressed per cage (Table 5).

[6] = Urine volume / diuretic action in rat (Test Example 2); format: in vivo; conditions: for Urine Volume (g/100 g body weight): 180 minutes
Description: as §2

[7] = tested on: SD IGS rats; test: Defecation-promoting action in rat (Test Example 2); format: in vivo; conditions: for The number of fecalpellets/3 rats: 180 minutes after administration
Description: as §2

[8] = tested on: colon tract; test: Inhibitory effect of adenosine receptor antagonist on suppressing action of NECA on Carbachol-stimulated contraction of the colon tract; parameters: species or system rat; conditions: for Contraction (%) Mean: Carbachol 0.3 μM + NECA 1 μM = 0%, Carbachol 0.3 μM = 100%
Description: as §1
(§3) In the experiment, 3 samples were used.

[9] = tested on: colon tract; test: Inhibitory effect of NECA on Carbachol-stimulated contraction of the colon tract; parameters: species or system rat; conditions: Carbachol 1.44 μM (singly added) = 100%
Description: as §1, with “Surrounding” for “The abdomen of a rat under anesthesia with ether was opened, and from the rectum to the cecum was excised therefrom and soaked in ice-cooled Tyrode solution (containing 136 mM NaCl, 2.7 mM KCl, 0.4 mM NaH2PO4.2H2O, 5.6 mM glucose, 11.9 mM NaHCO3, 1 mM MgCl2.6H2O, 1.8 mM CaCl2). Surrounding”
as §3

[10] = 3 mg/kg oral, Table 8, n = 4 cages/group
[11] = 10 mg/kg oral, Table 8, n = 4 cages/group
[12] = against NECA, KCl + tetrodotoxin

CCNC(=O)[C@H]1O[C@@H](n2cnc3c(N)nc(NCCc4ccc(CCC(=O)O)cc4)nc32)[C@H](O)[C@@H]1O [CGS21680, 2-p-[2-carboxyethyl]phenetylamino-5′-N-ethylarboxyamide adenosine]
Relaxing action (in words) [1]: very weak | Relaxing action (in words) ([2]; 1 μM, KCl + tetrodotoxin): did not act thereon

OC[C@H]1O[C@@H](n2cnc3c(NC4CCCC4)ncnc32)[C@H](O)[C@@H]1O [CPA]
EC50 [2]: 12.6 µM

C[N+](C)(C)CCOC(N)=O [Carbachol]
Contraction (%) Mean ([3]; Carbachol 0.01 μM, 1.44 μM Carbachol = 100%): 1.4% | Contraction (%) Mean ([3]; Carbachol 0.04 μM, 1.44 μM Carbachol = 100%): 24.5% | Contraction (%) Mean ([3]; Carbachol 0.14 μM, 1.44 μM Carbachol = 100%): 69.1% | Contraction (%) Mean ([3]; Carbachol 0.44 μM, 1.44 μM Carbachol = 100%): 87.0% | Contraction (%) Mean ([3]; Carbachol 1.44 μM (defined as 100%)): 100.0%

Cn1cc(-n2c(-c3cccc(F)c3)nc3c(N)ncnc32)ccc1=O [Compound II, 5-[6-amino-8-(3-fluorophenyl)-9H-9-purinyl]-1-methyl-1,2-di hydro-2-pyridinone]
The number of fecalpellets/3 rats ([4]; 1 mg/kg oral, Table 8, n = 4 cages/group): 12.5 ± 1.44 fecalpellets/3 rats | The number of fecalpellets/3 rats [4, 10]: 18.5 ± 1.94 fecalpellets/3 rats | The number of fecalpellets/3 rats [4, 11]: 20.75 ± 1.70 fecalpellets/3 rats

CCCn1c(=O)c2[nH]c(C3CCCC3)nc2n(CCC)c1=O [DPCPX]
pA2 value of the antagonistic action [1]: 8.8 | pA2 value ([2]; against CPA, KCl + tetrodotoxin): 7.0 | pA2 value [2, 12]: 6.6

Nc1nc(N)c(-c2ccncc2)c(-c2cccc(F)c2)n1 [Example 1, 6-(3-Flurophenyl)-5-(4-pyridyl)-2,4-pyrimidine diamine]
The number of fecalpellets/3 rats ([4]; 3 mg/kg oral, Table 10, n = 6 cages/group): 14.83 ± 1.82 fecalpellets/3 rats | The number of fecalpellets/3 rats ([4]; 10 mg/kg oral, Table 10, n = 6 cages/group): 23.17 ± 2.94 fecalpellets/3 rats

Cn1c(=O)c2[nH]c(-c3ccccc3)nc2n(C)c1=O [Example 8-PT, 8-phenyltheophylline]
pA2 value of the antagonistic action [1]: 6.5 | pA2 value [2, 12]: 5.7 | The number of fecalpellets/3 rats [4, 10]: 8.75 ± 1.75 fecalpellets/3 rats | The number of fecalpellets/3 rats [4, 11]: 13.75 ± 0.85 fecalpellets/3 rats

CCCn1c(=O)c2nc(C34CC5CC(CC3C5)C4)[nH]c2n(CCC)c1=O [KW 3902]
The number of fecalpellets/3 rats ([5]; 1 mg/kg together with KW 6002 (1 mg/kg)): 18.25 ± 1.49 fecalpellets/3 rats | The number of fecalpellets/3 rats ([5]; 1 mg/kg, without KW 6002): 9.00 ± 1.08 fecalpellets/3 rats | Urine Volume (g/100 g body weight) ([6]; 0.3 mg/kg oral): 2.08 ± 0.04 g/100 g body weight | Urine Volume (g/100 g body weight) ([6]; 1 mg/kg oral): 2.15 ± 0.09 g/100 g body weight | Urine Volume (g/100 g body weight) ([6]; 3 mg/kg oral): 2.01 ± 0.06 g/100 g body weight | Diuretic action (comparison in words) ([6]; rat, oral): stronger diuretic action than Compound I | The number of fecalpellets/3 rats ([7]; 0.3 mg/kg oral): 10.67 ± 2.08 fecalpellets/3 rats | The number of fecalpellets/3 rats ([7]; 1 mg/kg oral): 14.50 ± 1.18 fecalpellets/3 rats | The number of fecalpellets/3 rats ([7]; 3 mg/kg oral): 12.83 ± 1.66 fecalpellets/3 rats | Dose at which the defecation-promoting action reaches the maximum ([7]; rat, oral): 1 mg/kg | Defecation-promoting action (in words) ([7]; rat, oral, Table 4): exhibits a defecation-promoting action

CCCN1C(=O)N2CC(CC)N=C2c2[nH]c(C34CC5CC(CC3C5)C4)nc21 (stereo not shown) [KW 20274]
Contraction (%) Mean ([8]; antagonist 0.1 μM): −8.2% | Contraction (%) Mean ([8]; antagonist 0.4 μM): −26.0% | Contraction (%) Mean ([8]; antagonist 1.4 μM): −40.0% | Contraction (%) Mean ([8]; antagonist 4.4 μM): −71.0% | Inhibition of the suppressing effect of NECA on the contraction (in words) ([8]; rat colon tract, Carbachol + NECA): did not show any inhibitory effect

CCNC(=O)[C@H]1O[C@@H](n2cnc3c(N)ncnc32)[C@H](O)[C@@H]1O [NECA, 5′-N-ethylcarboxyamide adenosine]
EC50 [2]: 10.4 µM | Contraction (%) Mean ([9]; NECA 0.1 μM): 89.0% | Contraction (%) Mean ([9]; NECA 0.4 μM): 75.3% | Contraction (%) Mean ([9]; NECA 14.4 μM): 54.9%
